Type in all cases: cell-based
Experiment [1] concerns the target T1, long form of human GPR120 (Homo sapiens, UniProt Q5NUL3).
T1 construct: host or cells: PathHunter CHO-K1 GPR120 β-Arrestin Cell Line
In words: Human GPR120 DiscoveRx PathHunter β-Arrestin assay, Procedure β-arrestin A. The conditions noted are these: PathHunter CHO-K1 GPR120 β-Arrestin cell line, 3000 cells per well. The source says: The binding of an agonist (medium/long chain fatty acids or small molecule agonists) to the G-protein-coupled receptor GPR120 activates phospholipase C, leading to release of intracellular Ca^+2 through the generation of inositol 1,4,5-trisphosphate (InsP3 or IP3). GPR120 activation can also trigger intracellular signaling via recruitment of β-Arrestin. In the present method, agonist-induced activation of the human GPR120 receptor is monitored through the use of PathHunter CHO-K1 GPR120 β-Arrestin Cell Line engineered by DiscoveRx, as detailed below. The cell lines are designed to co-express both the ProLink/Enzyme Donor (PK)-tagged GPCR and the Enzyme […] (EA)-tagged Beta-Arrestin fusion proteins. Upon GPR120 receptor stimulation/activation, the EA-tagged β-Arrestin portion is translocated to the tagged receptor, where the two enzyme fragments are brought within close proximity. Under these conditions, these fragments can interact and form an active Beta-gal enzyme complex through Enzyme Fragment Complementation (EFC). This active Beta-gal complex can enzymatically hydrolyse the substrate to produce a detectable light signal; therefore, activation as a function of agonist concentration can be expressed as an EC50 value to determine relative compound activities. This in vitro assay therefore serves to assess compound agonist activity of the GPR120.
In Procedure β-arrestin A, the cell used were PathHunter CHO-K1 GPR120 β-Arrestin Cell Line, expressing the long form of human GPR120 (Genbank accession number NM_181745), with 3000 cells per well.
The selected CHO-K1 GPR120 β-Arrestin cells were cultured in Ham's F12 media supplemented with 10% fetal bovine serum (FBS), 1% Glutamine, 1×p/s, 800 μg/ml G418 and 300 μg/ml Hygromycin B (for selection). Cell stocks were maintained and grown in a sub-confluent state using standard cell culture procedures. The day before the experiment, the cells were harvested with non-enzymatic cell dissociation buffer and re-suspended in complete growth media at the desired concentration. A Corning 384-plate was then seeded with the proper number of cells in a volume of 25 μL, per well. The seeded plates were incubated overnight at 37° C.
On the day of the experiment, the Assay Buffer containing (a) HBSS with Ca^++ and Mg^++, (b) 20 mM HEPES, and (c) 0.1% BSA stabilizer (pH 7.4) was prepared. The growth medium was gently removed from the cell plates and 20 μL of Assay Buffer added to each well. The plate was then incubated at 37° C. for 60 mins. Test compounds were serially diluted in Assay Buffer to desired concentrations (more particularly, to one or more of the following μM concentrations: 25 μM, 12.5 μM, 6.25 μM, 3.125 μM, 1.562 μM, 0.781 μM, 0.391 μM, 0.195 μM, 0.098 μM, 0.049 μM, 0.024 μM, 0.012 μM). Five μl of compound dilution was then added to each well and the plate incubated at 37° C. for 90 mins. The detection reagents were prepared according to the manufacture's instruction. Twelve μL of the detection reagents were added to each well and the plate incubated at room temperature for 60 mins.
The plates were read on an EnVision instrument, using Protocol name: Luminescence, Plate type: 384 Costar, Measurement height: 3 mm, Measurement time: 1 s, Aperture: 384 Plate aperture. The % activity relative to the positive control was calculated using the following equation:
The % Activity values were plotted versus the concentration of test compound and fitted to a sigmoidal dose-response curve with a Hill slope=1 (fixed value) using nonlinear regression with GraphPad Prism 5.0 to calculate the EC50 values. The Fitting Equation was: Y=Bottom+(Top−Bottom)/(1+10^((LogEC50−X)*HillSlope)), where X is the log of the concentration and Y is the response.

Experiment [2] deals with T2, Human GPR120 short form (Homo sapiens, UniProt Q5NUL3).
T2 construct: expressed in transfected cells
T2 sequence (Q5NUL3 1-361): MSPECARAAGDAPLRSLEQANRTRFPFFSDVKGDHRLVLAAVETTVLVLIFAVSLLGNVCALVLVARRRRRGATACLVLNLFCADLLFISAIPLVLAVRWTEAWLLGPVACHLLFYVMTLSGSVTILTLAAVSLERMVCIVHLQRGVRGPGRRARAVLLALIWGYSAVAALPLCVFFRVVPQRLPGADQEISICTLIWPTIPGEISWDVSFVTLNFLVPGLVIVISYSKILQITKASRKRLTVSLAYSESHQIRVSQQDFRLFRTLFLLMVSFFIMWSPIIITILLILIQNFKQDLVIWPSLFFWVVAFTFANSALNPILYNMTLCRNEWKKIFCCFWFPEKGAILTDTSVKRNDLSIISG
In words: Human GPR120 calcium flux assay, Procedure Calcium B. To be noted: HEK-293 cells expressing human GPR120 short form, 4200 cells/well, FLIPR. From the text: (§1) This in vitro assay serves to assess test compound agonist activity against the short splice variant (SVS with Accession number NM_001195755.1 confirmed by sequencing data) of the GPR120 receptor. The Human Short splice variant #2 (NM_001195755.1) is missing an in-frame coding exon compared to variant 1 (the Human Long splice variant NM_181745.3), resulting in a shorter isoform (GPR120-S) lacking a 16 aa protein segment compared to isoform GPR120-L. The assay platform utilizes HEK-293 cells stably transfected to express the Human GPR120 short form. These cells are first loaded with the Ca^+2 sensitive dye, Fluo-4 NW. Upon stimulation, intracellular released Ca^+2 can bind to the dye and alter its fluorescence intensity. This increase in fluorescence signal, and thus the flux in intracellular [Ca^2+], is detected and quantitated by fluorescence imaging using a FLIPR reader. The effect of the agonist is measured as a function of concentration and used to calculate an EC50 based upon a response curve.
In this procedure 4200 cells/well were employed.
(§2) A Human GPR120 clone (Genbank accession number NM_001195755.1) was placed into the pcDNA3.1 mammalian expression vector carrying the neomycin resistance gene. A stable mammalian cell was generated by placing the above clone into a HEK293 background. Clonal cells responding to long chain fatty acids had expression levels of GPR120 confirmed by RT-qPCR. Human HEK-GPR120 cells were cultured in Dulbecco's Modified Eagle's Medium (DMEM)/F12 medium supplemented with 10% fetal bovine serum (FBS), 1% L-Glutamine and 1% penicillin/streptomycin and 0.5 mg/ml G-418. Cells were split 2 times a week to keep the cells in the log-phase growth.
(§3) In preparation for the assay, HEK cells stably transfected with Human GPR120 (2.5K cells per well in 25 uL growth medium) were seeded into 384-well plates and then incubated overnight (37° C., 5% CO2). The next day, the media was changed to 20 μl assay buffer and the cell starved for 1 h at 37° C. The dye loading solution (2× dye) was prepared using 10 ml assay buffer, 100 μl of 250 mM probenecid, 1 bottle of Component A, and 20 μl of dye in DMSO. Twenty μl of the 2× dye loading buffer was then added to each well. The plates were incubated at 37° C. for 30 min, then at room temperature for an additional 15 minutes, before performing the assay on FLIPR.
(§4) Test compounds were prepared in assay buffer (2 μl of test compound+198 μl assay buffer, final DMSO in assay plate is 0.2%) at the desired concentration, more particularly at 100 μM, 50 μM, 25 μM, 12.5 μM, 6.25 μM, 3.125 μM, 1.562 μM, 0.781 μM, 0.391 μM, 0.195 μM, 0.098 μM, 0.049 μM, 0.024 μM and 0.012 μM.
(§5) The assay was performed on a FLIPR plate reader using the following parameters. Baseline was read for 10 seconds at 1 sec intervals. The program was set to transfer 10 μL of ligand from compound plate to cell plate after baseline reading. Aspiration was executed at: 10 μl/sec speed, 4.6 μl height; Dispensing was executed at: 30 μl/sec speed, 45 μl height. After compound addition, each well was read for 300 sec, with measurements collected at 1 sec intervals.
(§6) The kinetic data from the FLIPR was based upon a 5 minute window for data collection. The fluorescence of each sample well was used for individual calculations of a normalized RFU value, which was defined as maximum response minus the minimum response. The normalized fluorescence reading (RFU) was calculated as follows: RFU=Fmax−Fmin
(§7) The data were fitted to a sigmoidal dose-response curve with a variable Hill slope (<2) using nonlinear regression with GraphPad Prism 5.0 to calculate the EC50 values. The Fitting Equation was: Y=Bottom+(Top−Bottom)/(1+10^((LogEC50−X)*HillSlope)), where X is the log of the concentration and Y is the response.
(A change in cytosolic calcium serves as a functional read-out for many receptors and channels.)

Experiment [3] deals with T2, Human GPR120 short form. Put plainly: Human GPR120 calcium flux assay, Procedure Calcium A. The conditions noted are these: HEK-293 cells expressing human GPR120 short form, 2500 cells/well, FLIPR.
Text: as §1
In this procedure 2500 cells/well were employed.
as §2, §3, §4, §5, §6, §7

pEC50: −log10 of the molar value.

T1 sequence (Q5NUL3 1-377 isoform Q5NUL3-1): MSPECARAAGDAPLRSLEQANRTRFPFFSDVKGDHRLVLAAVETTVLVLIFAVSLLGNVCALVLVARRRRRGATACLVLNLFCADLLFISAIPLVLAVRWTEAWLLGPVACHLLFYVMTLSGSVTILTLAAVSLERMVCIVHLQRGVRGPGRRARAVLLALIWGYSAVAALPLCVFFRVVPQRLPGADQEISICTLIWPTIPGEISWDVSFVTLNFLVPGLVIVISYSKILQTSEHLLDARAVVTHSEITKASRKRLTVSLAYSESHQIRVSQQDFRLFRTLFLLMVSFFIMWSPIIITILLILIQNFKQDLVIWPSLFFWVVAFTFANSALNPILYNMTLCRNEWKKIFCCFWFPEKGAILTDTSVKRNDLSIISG
T1 sequence (P32121 whole entry partner): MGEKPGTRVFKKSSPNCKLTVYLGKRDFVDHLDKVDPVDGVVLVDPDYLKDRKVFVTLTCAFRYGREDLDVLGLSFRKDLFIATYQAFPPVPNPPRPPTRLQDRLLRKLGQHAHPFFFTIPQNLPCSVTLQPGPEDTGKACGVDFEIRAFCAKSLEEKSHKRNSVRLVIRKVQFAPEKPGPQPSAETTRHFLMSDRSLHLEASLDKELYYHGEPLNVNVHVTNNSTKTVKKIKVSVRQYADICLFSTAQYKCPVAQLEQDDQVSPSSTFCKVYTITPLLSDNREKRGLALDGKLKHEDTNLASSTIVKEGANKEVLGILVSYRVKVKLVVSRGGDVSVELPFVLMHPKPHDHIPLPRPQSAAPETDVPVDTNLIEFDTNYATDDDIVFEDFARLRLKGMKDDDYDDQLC

By pEC50 is commonly meant the negative decadic logarithm of the EC50, by convention in mol/L. In the case of `Cc1c(CCC(=O)O)ccc(OCc2cccn2-c2ccc(Br)cc2)c1C` [Compound 3, 3-(4-{[1-(4-Bromophenyl)-1H-pyrrol-2-yl]methoxy}-2,3-dimethylphenyl)propanoic acid], the pEC50 in experiment [1] was 6.23; at Human GPR120 short form [2], 6.79; at Human GPR120 short form [3], 5.98.

Consider `CCc1ccc(-n2ccc(C(F)(F)F)c2COc2ccc(CCCO)c(C)c2C)cc1` [Compound 40, 3-(4-[[1-(4-ethylphenyl)-3-(trifluoromethyl)-1H-pyrrol-2-yl]methoxy]-2,3-dimethylphenyl)propan-1-ol], for which the values for the negative-log EC50 (pEC50) at Human GPR120 short form [2] and on Human GPR120 short form [3] were 6.05 and 5.72, respectively.

Consider `CCc1ccc(-n2ccc(C(F)(F)F)c2COc2ccc(CCCO)c(F)c2F)cc1` [Compound 41, 3-(4-[[1-(4-ethylphenyl)-3-(trifluoromethyl)-1H-pyrrol-2-yl]methoxy]-2,3-difluorophenyl)propan-1-ol], for which the negative logarithm of the EC50 (pEC50) at Human GPR120 short form [2] was 6.61; at Human GPR120 short form [3], 5.90.

As for `Cc1ccc(-n2ccc(C(F)(F)F)c2COc2ccc(CCCO)c(C)c2C)cc1` [Compound 45, 3-(2,3-dimethyl-4-[[1-(4-methylphenyl)-3-(trifluoromethyl)-1H-pyrrol-2-yl]methoxy]phenyl)propan-1-ol], the negative-log EC50 (pEC50) on Human GPR120 short form [2] is 6.29; on Human GPR120 short form [3], 5.84.

For the compound `COc1ccc(-n2ccc(C(F)(F)F)c2COc2ccc(CCCO)c(F)c2F)cn1` [Compound 50, 3-(2,3-difluoro-4-[[1-(6-methoxypyridin-3-yl)-3-(trifluoromethyl)-1H-pyrrol-2-yl]methoxy]phenyl)propan-1-ol], the negative logarithm of the EC50 (pEC50) at Human GPR120 short form [2] is 7.24; at Human GPR120 short form [3], 6.40.

Turning to `COc1ccc(-n2ccc(C(F)(F)F)c2COc2c(F)cc(CCC(=O)O)cc2F)cn1` [Compound 51, 3-(3,5-difluoro-4-[[1-(6-methoxypyridin-3-yl)-3-(trifluoromethyl)-1H-pyrrol-2-yl]methoxy]phenyl)propanoic acid], the values for the pEC50 at Human GPR120 short form [2] and at Human GPR120 short form [3] were 6.71 and 6.17, respectively.

`COc1ccc(-n2ccc(C(F)(F)F)c2COc2c(F)cc(CCCO)cc2F)cn1` [Compound 52, 3-(3,5-difluoro-4-[[1-(6-methoxypyridin-3-yl)-3-(trifluoromethyl)-1H-pyrrol-2-yl]methoxy]phenyl)propan-1-ol]: the pEC50 was 7.15 at Human GPR120 short form [2] and 6.55 on Human GPR120 short form [3].

`Cc1ccc(-n2ccc(C(F)(F)F)c2COc2ccc(CCC(=O)O)c(F)c2F)cn1` [Compound 53, 3-(2,3-Difluoro-4-{[1-(6-methylpyridin-3-yl)-3-(trifluoromethyl)-1H-pyrrol-2-yl]methoxy}phenyl)propanoic acid]: the results for the pEC50 on Human GPR120 short form [2] and on Human GPR120 short form [3] were 6.37 and 5.70, respectively.

On to `CCc1ccc(-n2ccc(C(F)(F)F)c2COc2ccc(CCCO)c(F)c2F)cn1` [Compound 54, 3-(4-[[1-(6-ethylpyridin-3-yl)-3-(trifluoromethyl)-1H-pyrrol-2-yl]methoxy]-2,3-difluorophenyl)propan-1-ol], for which the pEC50 at Human GPR120 short form [2] was 6.94; at Human GPR120 short form [3], 6.30.

Consider `CCc1ccc(-n2ccc(C(F)(F)F)c2COc2c(F)cc(CCCO)cc2F)cn1` [Compound 55, 3-(4-[[1-(6-ethylpyridin-3-yl)-3-(trifluoromethyl)-1H-pyrrol-2-yl]methoxy]-3,5-difluorophenyl)propan-1-ol], for which the negative logarithm of the EC50 (pEC50) was 7.47 on Human GPR120 short form [2] and 6.67 on Human GPR120 short form [3].

With `CCc1ccc(-n2ccc(C(F)(F)F)c2COc2c(F)cc(CCC(=O)O)cc2F)cn1` [Compound 56, 3-(4-[[1-(6-ethylpyridin-3-yl)-3-(trifluoromethyl)-1H-pyrrol-2-yl]methoxy]-3,5-difluorophenyl)propanoic acid], the pEC50 is 6.06 on Human GPR120 short form [2] and 5.85 on Human GPR120 short form [3].

Turning to `COc1ccc(-n2ccc(C(F)(F)F)c2COc2ccc(CCC(=O)O)c(F)c2F)cn1` [Compound 57, 3-(2,3-difluoro-4-((1-(6-methoxypyridin-3-yl)-3-(trifluoromethyl)-1H-pyrrol-2-yl)methoxy)phenyl)propanoic acid trifluoroacetic acid], the pEC50 is 7.11 on Human GPR120 short form [2] and 6.08 at Human GPR120 short form [3].

The values above are taken from patent US8912227B1, “Bicyclic pyrrole derivatives useful as agonists of GPR120” (Janssen Pharmaceutica NV, priority 2014, dated 2014).
